The nature of series [1]: Toxicity in mice. To be noted: 50 mg/kg intravenously daily for 7 days.
Series [2] concerns the target PKR (Homo sapiens, UniProt P19525). The series can be described thus: ADP-Glo kinase assay, high-throughput enzymatic screening (Reaction Biology). Format: biochemical. Background: ADP-Glo first removes unused ATP, then detects ADP through luciferase.
Series [3] deals with PI4KIIIb (Homo sapiens, UniProt Q9UBF8). Described as above. Format: biochemical.
Series [4] relates to leukemia cell lines. The series can be described thus: 3-(4,5-dimethylthiazol-2-yl)-2,5-diphenyltetrazolium bromide viability assay. Format: cell-based. How it is done: (§1) Cell viability assays: For SRB assays, cells (2-8×10^3/well in 100 μL of culture medium) were seeded in 96-well flat-bottomed plates and treated the next day with compounds at the indicated concentrations. After the indicated treatments, cells were fixed with trichloroacetic acid. The protein was stained with SRB, and the optical density at 570 nm was determined. Relative cell viability was calculated by setting the viability rate of the control cells (exposed only to dimethyl sulfoxide) at 100% and comparing the viability of the treated cells with that of the controls. The experiments were performed at least three times for each cell line. The viability of leukemia cell lines was determined by using a 3-(4,5-dimethylthiazol-2-yl)-2,5-diphenyltetrazolium bromide assay.

Series [5] relates to HeLa cells. The experiment in a line: SRB cell viability assay. Format: cell-based, human. To be noted: 72 hours after treatment. How it is done:
Anticancer effects of PKR-targeting compounds depend on PKR expression status: To identify compounds that can target lysosomes in PKR-positive cells or MVBs/exosomes in PKR-negative cells, the 10,000-compound ChemBridge library was screened for compounds with different effects on the growth of HeLa and HeLaPKRkd cells. […] SRB assays were next used to determine cell viability after treatment with Pac 1 or Pac 2.
as §1
Identification of PKR-associated compounds and cytotoxicity studies: The library of 10,000 compounds was screened for those with different effects on the growth of HeLa and HeLaPKRkd cells. […] Treated cells were observed under a microscope to detect morphologic changes, and their viability was determined using SRB assays 2 and 3 days after treatment. […]
For the SRB assay, cells (2-8×10^3/well in 100 μL of culture medium) were seeded in 96-well flat-bottomed plates and treated the next day with compounds at the indicated concentrations. […] The cells were stained using SRB, and the optical density at 570 nm was determined. Relative cell viability was determined by setting the viability of the control cells (exposed only to dimethyl sulfoxide) at 100% and comparing their viability with that of the treated cells. […]

For series [6], the system named is breast cancer cell lines. The experiment in a line: SRB cell viability assay. Format: cell-based, human. To be noted: 72 hours after treatment. The method, then: (§2) The effects of Pac 1 and Pac 2 were next examined on PKR protein expression in HeLa cells using Western blot analysis. […] No reduction in normal cell viability was observed after treatment with Pac 1 or Pac 2 (FIGS. 5F and G). […] Because most of the cancer cell lines that were tested were more sensitive to Pac 1 than to Pac 2, Pac 1 was further investigated.
as §1
(§3) For the SRB assay, cells (2-8×10^3/well in 100 μL of culture medium) were seeded in 96-well flat-bottomed plates and treated the next day with compounds at the indicated concentrations. After treatment for the indicated times, cells were fixed with trichloroacetic acid. The cells were stained using SRB, and the optical density at 570 nm was determined. Relative cell viability was determined by setting the viability of the control cells (exposed only to dimethyl sulfoxide) at 100% and comparing their viability with that of the treated cells. The experiments were performed at least three times for each cell line.

For series [7], the system named is H1299. The series can be described thus: SRB cell viability assay. The series is classed as cell-based, human. To be noted: 72 hours after treatment. The method, then: as §2, §1, §3
Series [8] deals with A549. The series can be described thus: SRB cell viability assay. The series is classed as cell-based, human. To be noted: 72 hours after treatment. The method, then:
as §2, §1, §3

The target in series [9] is PI3Ka (Homo sapiens, UniProt P42336). The experiment in a line: ADP-Glo kinase assay, high-throughput enzymatic screening (Reaction Biology). Format: biochemical.
Chain of PI3Ka (P42336 whole entry): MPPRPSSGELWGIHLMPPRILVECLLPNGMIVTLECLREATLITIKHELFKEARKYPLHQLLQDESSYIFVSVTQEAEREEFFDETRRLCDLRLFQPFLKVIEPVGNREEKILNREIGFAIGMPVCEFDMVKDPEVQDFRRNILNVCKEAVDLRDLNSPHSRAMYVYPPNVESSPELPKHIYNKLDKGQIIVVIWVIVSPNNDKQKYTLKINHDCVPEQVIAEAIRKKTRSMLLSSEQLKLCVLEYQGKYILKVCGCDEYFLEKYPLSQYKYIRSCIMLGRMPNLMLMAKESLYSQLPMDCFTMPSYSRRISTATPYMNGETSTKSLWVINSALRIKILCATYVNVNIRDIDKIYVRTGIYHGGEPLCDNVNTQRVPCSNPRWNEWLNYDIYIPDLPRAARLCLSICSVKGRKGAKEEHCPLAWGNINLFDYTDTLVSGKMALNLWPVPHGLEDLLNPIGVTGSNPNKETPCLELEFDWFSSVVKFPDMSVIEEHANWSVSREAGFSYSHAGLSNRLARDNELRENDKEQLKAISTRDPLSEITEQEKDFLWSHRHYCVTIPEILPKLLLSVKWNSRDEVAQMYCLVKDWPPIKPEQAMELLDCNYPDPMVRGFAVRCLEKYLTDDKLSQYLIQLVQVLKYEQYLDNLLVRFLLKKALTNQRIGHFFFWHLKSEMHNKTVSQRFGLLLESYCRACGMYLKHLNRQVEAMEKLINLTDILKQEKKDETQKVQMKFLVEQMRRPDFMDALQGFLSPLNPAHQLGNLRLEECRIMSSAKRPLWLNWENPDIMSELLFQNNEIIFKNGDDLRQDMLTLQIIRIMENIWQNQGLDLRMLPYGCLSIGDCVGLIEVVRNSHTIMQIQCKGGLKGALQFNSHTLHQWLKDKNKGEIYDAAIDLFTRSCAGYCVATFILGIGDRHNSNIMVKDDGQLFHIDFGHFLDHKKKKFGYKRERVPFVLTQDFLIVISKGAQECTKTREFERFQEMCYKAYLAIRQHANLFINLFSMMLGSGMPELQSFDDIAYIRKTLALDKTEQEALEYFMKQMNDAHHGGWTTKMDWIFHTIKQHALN
Chain of PI3Ka (P27986 whole entry partner): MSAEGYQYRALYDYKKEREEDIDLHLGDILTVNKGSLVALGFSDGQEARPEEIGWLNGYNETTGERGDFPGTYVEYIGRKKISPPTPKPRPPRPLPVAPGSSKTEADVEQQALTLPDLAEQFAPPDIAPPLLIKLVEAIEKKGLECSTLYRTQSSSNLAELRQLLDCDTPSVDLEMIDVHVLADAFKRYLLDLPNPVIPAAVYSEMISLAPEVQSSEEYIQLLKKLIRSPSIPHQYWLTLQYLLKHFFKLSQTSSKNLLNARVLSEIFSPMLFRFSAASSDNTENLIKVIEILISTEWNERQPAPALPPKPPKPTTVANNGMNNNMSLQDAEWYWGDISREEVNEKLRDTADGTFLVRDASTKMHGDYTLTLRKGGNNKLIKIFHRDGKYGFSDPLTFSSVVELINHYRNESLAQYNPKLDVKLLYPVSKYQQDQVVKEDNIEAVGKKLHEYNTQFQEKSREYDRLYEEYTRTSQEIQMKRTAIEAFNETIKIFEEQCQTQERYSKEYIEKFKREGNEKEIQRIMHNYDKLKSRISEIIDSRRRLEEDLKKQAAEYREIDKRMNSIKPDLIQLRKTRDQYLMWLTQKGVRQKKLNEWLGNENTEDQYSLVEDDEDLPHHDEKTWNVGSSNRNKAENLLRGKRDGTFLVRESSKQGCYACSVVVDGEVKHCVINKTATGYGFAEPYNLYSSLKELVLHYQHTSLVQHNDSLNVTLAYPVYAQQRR
Series [10] concerns p-4EBP1, eEF2K, GSK3ab, IRS1 and Caveolin. The experiment in a line: RPPA assay of 156 proteins. Format: cell-based, human. To be noted: H1299 and A549 cells, 72 hours; Pac 1 5 and 10 μM, Pac 2 10 μM. The method, then:
The translation regulator eukaryotic […] 4EBP1 is phosphorylated by and is a substrate of PIM3 and PIM1. To further determine whether treatment with Pac 1 affects PIM3/1 downstream targets, the expression of 156 proteins in H1299 and A549 cells was analyzed after treatment with Pac 1 or Pac 2 using an RPPA assay. […] Others reported cross-talk of PP2A with PKR and 4EBP1 protein in cancer cells.

Series [11] relates to normal cells (HBE, human mammary epithelial cells). The series can be described thus: SRB cell viability assay, normal cells. The series is classed as cell-based. To be noted: 72 hours after treatment, HBE and human mammary epithelial cells. How it is done: as §2, §1
For the SRB assay, cells (2-8×10^3/well in 100 μL of culture medium) were seeded in 96-well flat-bottomed plates and treated the next day with compounds at the indicated concentrations. […] The cells were stained using SRB, and the optical density at 570 nm was determined. […]

Series [12] has as its target PIM3 (Homo sapiens, UniProt Q86V86). The series can be described thus: High-throughput enzymatic screening. The series is classed as biochemical.
Series [13] relates to lysosomes and MVBs/exosomes. The experiment in a line: Transmission electron microscopy (TEM) of treated cells. The series is classed as cell-based, human.
Series [14] addresses PI4K2A kinase (Homo sapiens, UniProt Q9BTU6). The series can be described thus: ADP-Glo kinase assay, high-throughput enzymatic screening (Reaction Biology).
Series [15] relates to PKR and p-PKR. The experiment in a line: Western blot of PKR and p-PKR protein expression. The series is classed as cell-based, human. A general note: Immunoblotting shows a protein as a band on a membrane.
Series [16] concerns 127 human lung cancer cell lines. The experiment in a line: SRB assay, oncopanel of 127 lung cancer cell lines. The series is classed as cell-based.
Excerpt: Antiproliferative effect of Pac 1 and Pac 2 on an oncopanel of lung cancer cell lines: The antiproliferative effect of treatment with Pac1 were further tested on an oncopanel of 127 cell lines of various lung tumor origins. […] RPPA analysis of Pac 1-sensitive cells identified correlation with higher expression of GSK3 (FIG. 16B), and Pac 1-resistant cells correlation with higher expression of IRS1, Caveolin and PKCA (PS657) (FIG. 16B). Analyzed the Pac1 sensitivity with gene mutation observed that low Pac 1 IC50 correlated with VCAN and ZNF804A mutation, and high Pac 1 IC50 correlated with LOXHD1 and CDH12 mutation (FIG. 16C). VCAN mutant lung cancer cells are sensitive to treatment of Pac 1.
as §1
Background: The SRB assay estimates cell density from bound dye.

Series [17] concerns PI4K2A protein. The experiment in a line: Thermal shift assay (differential scanning fluorimetry). Format: binding.

Chain of PKR (P19525 whole entry): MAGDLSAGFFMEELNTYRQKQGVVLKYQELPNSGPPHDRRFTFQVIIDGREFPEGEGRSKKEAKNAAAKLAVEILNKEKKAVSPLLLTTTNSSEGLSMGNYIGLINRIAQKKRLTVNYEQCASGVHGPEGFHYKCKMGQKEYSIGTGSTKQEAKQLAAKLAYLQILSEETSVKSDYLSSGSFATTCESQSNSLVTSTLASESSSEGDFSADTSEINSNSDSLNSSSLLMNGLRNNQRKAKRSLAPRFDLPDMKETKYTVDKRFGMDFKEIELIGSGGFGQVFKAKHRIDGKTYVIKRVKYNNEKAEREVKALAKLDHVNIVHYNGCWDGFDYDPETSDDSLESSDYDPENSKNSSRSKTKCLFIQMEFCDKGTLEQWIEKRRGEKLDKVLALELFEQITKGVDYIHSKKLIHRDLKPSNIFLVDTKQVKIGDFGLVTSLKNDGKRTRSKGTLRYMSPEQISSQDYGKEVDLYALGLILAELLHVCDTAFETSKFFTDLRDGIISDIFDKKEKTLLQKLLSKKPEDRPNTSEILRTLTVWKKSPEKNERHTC
Chain of PI4KIIIb (Q9UBF8 whole entry): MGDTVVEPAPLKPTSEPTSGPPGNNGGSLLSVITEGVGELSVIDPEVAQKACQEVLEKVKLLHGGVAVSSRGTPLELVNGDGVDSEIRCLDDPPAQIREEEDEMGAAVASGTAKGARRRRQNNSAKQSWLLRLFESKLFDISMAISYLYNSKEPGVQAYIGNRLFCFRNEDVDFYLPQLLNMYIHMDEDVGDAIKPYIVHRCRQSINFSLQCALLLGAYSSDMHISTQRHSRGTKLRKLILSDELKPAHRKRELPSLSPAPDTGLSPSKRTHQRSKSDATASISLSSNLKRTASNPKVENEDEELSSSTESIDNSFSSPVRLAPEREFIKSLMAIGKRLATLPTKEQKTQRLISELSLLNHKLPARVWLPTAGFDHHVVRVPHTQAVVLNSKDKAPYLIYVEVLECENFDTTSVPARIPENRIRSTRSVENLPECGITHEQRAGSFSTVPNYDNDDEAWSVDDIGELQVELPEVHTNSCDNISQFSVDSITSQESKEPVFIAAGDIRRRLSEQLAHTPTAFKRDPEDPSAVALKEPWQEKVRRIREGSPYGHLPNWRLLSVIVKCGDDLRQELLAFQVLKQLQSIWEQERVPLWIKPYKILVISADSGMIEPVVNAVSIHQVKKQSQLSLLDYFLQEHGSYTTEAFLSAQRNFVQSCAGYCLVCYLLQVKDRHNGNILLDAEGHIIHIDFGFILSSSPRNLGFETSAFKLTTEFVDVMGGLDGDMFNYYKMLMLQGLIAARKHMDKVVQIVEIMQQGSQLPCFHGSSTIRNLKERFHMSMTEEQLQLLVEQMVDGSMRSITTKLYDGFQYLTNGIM
Chain of PI4K2A kinase (Q9BTU6 whole entry): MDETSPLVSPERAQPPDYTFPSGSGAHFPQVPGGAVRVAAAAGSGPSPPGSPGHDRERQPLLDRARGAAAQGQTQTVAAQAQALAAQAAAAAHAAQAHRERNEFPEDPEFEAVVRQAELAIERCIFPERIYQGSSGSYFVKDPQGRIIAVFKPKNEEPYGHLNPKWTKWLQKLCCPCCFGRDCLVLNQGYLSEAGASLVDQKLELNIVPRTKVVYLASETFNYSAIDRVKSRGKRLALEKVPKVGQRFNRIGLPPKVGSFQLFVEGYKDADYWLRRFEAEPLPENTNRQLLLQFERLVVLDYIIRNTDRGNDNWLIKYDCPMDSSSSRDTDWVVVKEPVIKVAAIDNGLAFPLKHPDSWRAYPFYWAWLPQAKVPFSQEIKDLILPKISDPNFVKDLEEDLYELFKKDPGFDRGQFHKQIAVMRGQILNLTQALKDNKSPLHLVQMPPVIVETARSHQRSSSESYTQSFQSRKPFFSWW

As usually defined, the IC50 is the concentration at which inhibition is half-maximal. Read a high IC50 as lower potency. For `O=C(N/N=C\c1c(O)ccc2ccccc12)c1cccc2cc[nH]c12` [Pac 1, N′—[(Z)-(2-Hydroxy-1-naphthyl)methylene]-1H-indole-7-carbohydrazide], the “blood chemistry: aspartate aminotransferase, SGOT, SGPT, alkaline phosphatase, creatine kinase, lactate dehydrogenase levels” value in [1] is “normal”. For the same compound, the “histopathologic examination of major organs” value in [1] (heart, lungs, liver, kidneys, pancreas, spleen) is “no significant changes in any major organs”. Besides, the “inhibition of PKR kinase activity” value in [2] is recorded as “did not inhibit”. Further, the “inhibition of kinase activity” value in series [3] and in series [9] was “not other kinases” each time. For the same compound, in series [4], the “growth of leukemia cell lines” value was “growth inhibition”. In addition, the “viability of HeLa cells” value in series [5] is “suppressed more effectively by Pac 1 than by Pac 2”. Moreover, in series [6], the “growth of breast cancer cell lines” value is reported as “inhibited the growth”. Moreover, the “sensitivity (viability) of H1299 cells” value in series [7] was “more sensitive to treatment with Pac 1 than that with Pac 2”. In addition, the “sensitivity (viability) of A549 cells” value in series [8] is given as “more sensitive to treatment with Pac 1 than that with Pac 2”. In series [10], the “levels of p-4EBP1 (S65, T37, and T70), eEF2K, GSK3ab, IRS1 and Caveolin” value was “significantly inhibited”. The normal cell viability result in series [11] is on record as “No reduction”. The “inhibition of PIM3/1 activity” value in series [12] was “markedly inhibited”. In addition, the “lysosomes by TEM” value in series [13] (HeLa cells, 5 μM) is given as “destruction of lysosomes”. The “lysosomes and MVBs/exosomes by TEM” value in series [13] (HeLaPKRkd cells) is listed as “a lack of lysosomes but enrichment of MVBs/exosomes”. Further, the IC50 in series [14] was 2500 nM; in series [16] (Homo sapiens, sensitive cell lines of the oncopanel of 127 lung cancer cell lines) it was 10 to 950 nM. The “PKR and p-PKR expression” value in [15] (A549 and H1299 cells, 5 μM, 72 hours) is recorded as “markedly reduced”. Besides, the “expression of PKR and p-PKR” value in series [15] (HeLa cells, 72 hours after treatment) is “significantly reduced”. The “PKR, p-PKR, and PI4K2A expression” value in [15] (LOVO colon cancer cells, 72 hours, various doses) is “reduced PKR, p-PKR, and PI4K2A expression”. Besides, in series [15] (breast cancer cell lines, 72 hours, various doses), the PKR expression result was “reduced PKR expression”. Further, the “sensitivity of VCAN mutant lung cancer cells” value in series [16] (VCAN mutants versus VCAN wild-type cells) is listed as “sensitive”. In addition, in series [16] (oncopanel of 127 cell lines of various lung tumor origins), the “share of cell lines sensitive” value is recorded as “Sixty-five”. Further, the “binding to PI4K2A and change of melting temperature” value in series [17] is “binds to PI4K2A and causes a decrease in the melting temperature”.

For the origin of these results see patent publication US12465610B2, “Compounds and methods for the treatment of PKR-associated diseases” (Board of Regents, The University of Texas System, priority 2019, dated 2025).
